Values joined by “and” are separate entries in the source; they are usually repeats but may differ in a detail not shown here. Equal entries are not always repeated.
Conditions: 303.15 K, Liquid, Vibrating tube method

CCCCCC(=O)OCC(COC(=O)CCCCC)(COC(=O)CCCCC)COC(=O)CCCCC [pentaerythritol tetrahexanoate]
Conditions	mass density
17124 kPa	999 kg/m3
17144 kPa	998.9 kg/m3
17164 kPa	998.9 kg/m3
17186 kPa	998.9 kg/m3
17201 kPa	998.9 kg/m3
17216 kPa	998.9 kg/m3
17229 kPa	999.1 kg/m3
17243 kPa	999 kg/m3
17245 kPa	999 kg/m3
17247 kPa	999.1 kg/m3
17248 kPa	999.1 kg/m3
17250 kPa	999.1 kg/m3
17251 kPa	999 kg/m3
17252 kPa	999 kg/m3
17253 kPa	999 kg/m3
17254 kPa	999.1 kg/m3
17256 kPa	999 kg/m3
17265 kPa	999 kg/m3
17267 kPa	999.1 kg/m3
17272 kPa	999 kg/m3
17282 kPa	999 kg/m3
17286 kPa	999 kg/m3
17289 kPa	999 kg/m3
17290 kPa	998.9 kg/m3 and 999 kg/m3
17296 kPa	999.1 kg/m3
17310 kPa	999.2 kg/m3
17330 kPa	999.1 kg/m3
17334 kPa	999.1 kg/m3
17348 kPa	999.1 kg/m3
17353 kPa	999 kg/m3
17354 kPa	999.2 kg/m3
17377 kPa	999.2 kg/m3
17400 kPa	999.1 kg/m3
17428 kPa	999.2 kg/m3
17452 kPa	999.1 kg/m3
17475 kPa	999.3 kg/m3
17503 kPa	999.1 kg/m3
17526 kPa	999.1 kg/m3
17550 kPa	999.3 kg/m3
17577 kPa	999.3 kg/m3
17917 kPa	999.3 kg/m3
17939 kPa	999.5 kg/m3
17961 kPa	999.4 kg/m3
17988 kPa	999.5 kg/m3
18010 kPa	999.4 kg/m3
18037 kPa	999.5 kg/m3
18060 kPa	999.6 kg/m3
18083 kPa	999.5 kg/m3
18105 kPa	999.5 kg/m3
18132 kPa	999.4 kg/m3
18155 kPa	999.6 kg/m3
18178 kPa	999.7 kg/m3
18205 kPa	999.6 kg/m3
18228 kPa	999.6 kg/m3
18256 kPa	999.6 kg/m3
18279 kPa	999.6 kg/m3
18302 kPa	999.6 kg/m3
18325 kPa	999.7 kg/m3
18353 kPa	999.6 kg/m3
18377 kPa	999.8 kg/m3
18400 kPa	999.7 kg/m3
18428 kPa	999.7 kg/m3
18452 kPa	999.6 kg/m3
18476 kPa	999.8 kg/m3
18504 kPa	999.8 kg/m3
18528 kPa	999.8 kg/m3
18551 kPa	999.7 kg/m3
18580 kPa	999.9 kg/m3
18604 kPa	1000 kg/m3
18628 kPa	1000 kg/m3
18657 kPa	999.8 kg/m3
18917 kPa	1000 kg/m3
18943 kPa	1000 kg/m3
18968 kPa	999.9 kg/m3
18998 kPa	1000 kg/m3
19024 kPa	1000 kg/m3
19049 kPa	1000.2 kg/m3
19074 kPa	1000 kg/m3
19104 kPa	1000.1 kg/m3
19128 kPa	1000 kg/m3
19154 kPa	1000.1 kg/m3
19177 kPa	1000.1 kg/m3
19199 kPa	1000.2 kg/m3
19226 kPa	1000.2 kg/m3
19249 kPa	1000.3 kg/m3
19273 kPa	1000.2 kg/m3
19296 kPa	1000.3 kg/m3
19323 kPa	1000.1 kg/m3
19346 kPa	1000.2 kg/m3
19374 kPa	1000.3 kg/m3
19397 kPa	1000.3 kg/m3
19420 kPa	1000.3 kg/m3
19443 kPa	1000.3 kg/m3
19471 kPa	1000.3 kg/m3
19495 kPa	1000.2 kg/m3
19518 kPa	1000.3 kg/m3
19546 kPa	1000.4 kg/m3
19570 kPa	1000.4 kg/m3
19595 kPa	1000.3 kg/m3
19618 kPa	1000.4 kg/m3
19642 kPa	1000.4 kg/m3
19670 kPa	1000.4 kg/m3
19694 kPa	1000.4 kg/m3
19718 kPa	1000.6 kg/m3
19747 kPa	1000.4 kg/m3
19771 kPa	1000.5 kg/m3
19795 kPa	1000.5 kg/m3
19824 kPa	1000.4 kg/m3
19849 kPa	1000.5 kg/m3
19873 kPa	1000.6 kg/m3
19904 kPa	1000.6 kg/m3
19928 kPa	1000.6 kg/m3
19952 kPa	1000.6 kg/m3
19977 kPa	1000.5 kg/m3
20006 kPa	1000.7 kg/m3
20031 kPa	1000.6 kg/m3
20056 kPa	1000.7 kg/m3
20081 kPa	1000.6 kg/m3
20111 kPa	1000.7 kg/m3
20136 kPa	1000.8 kg/m3
20162 kPa	1000.8 kg/m3
20192 kPa	1000.7 kg/m3
20217 kPa	1000.9 kg/m3
20248 kPa	1000.8 kg/m3
20274 kPa	1000.8 kg/m3
20299 kPa	1000.9 kg/m3
20324 kPa	1000.8 kg/m3
20350 kPa	1000.8 kg/m3
20381 kPa	1000.8 kg/m3
20406 kPa	1000.9 kg/m3
20432 kPa	1000.9 kg/m3
20463 kPa	1000.9 kg/m3
20489 kPa	1000.9 kg/m3
20515 kPa	1000.8 kg/m3
20547 kPa	1000.9 kg/m3
20573 kPa	1001 kg/m3
20600 kPa	1000.9 kg/m3
20627 kPa	1001 kg/m3
20658 kPa	1001 kg/m3
20685 kPa	1001.1 kg/m3
20716 kPa	1001 kg/m3
20743 kPa	1001 kg/m3
20770 kPa	1001 kg/m3
20797 kPa	1001 kg/m3
20829 kPa	1001 kg/m3
